This is an account of results in patent US9550749B2, “Endoparasite control agent and method for using the same” (The University of Tokyo, priority 2012, dated 2017).

As usually defined, the IC50 is the concentration needed to halve the response being measured. A high value points to weaker potency in that assay.

Molecules are shown by their SMILES.

Assay [1] deals with T1, Ascaris suum succinate-ubiquinone reductase (mitochondrial complex II) (Ascaris suum, UniProt O44074+P92506+P92507).
T1 construct: from tissue; host or cells: mitochondria from adult Ascaris suum muscle
Nature of the assay: In vitro measurement of inhibitory activity on Ascaris suum succinate-ubiquinone reductase (mitochondrial complex II). To be noted: mitochondria from adult Ascaris suum muscle, UQ2 60 μM, succinate 10 mM, 25° C. It is filed as biochemical. As for the experimental part:
In Vitro Measurement of Inhibitory Activity on Ascaris suum Succinate-Ubiquinone Reductase (Mitochondrial Complex II)
To a solution containing 50 mM potassium phosphate (pH 7.4) and 0.1% (w/v) sucrose monolaurate, an electron acceptor ubiquinone-2 (UQ2) was added at a final concentration of 60 μM, and the mixture was allowed to stand at 25° C. for 20 minutes. To this, potassium cyanide (final concentration: 2 mM) and mitochondria prepared from adult Ascaris suum muscle were added, and thorough mixing was done. To aliquots of the mixture, an inhibitor to be tested was added at various concentrations, and the mixtures were allowed to stand at 25° C. for 3 minutes. The enzymatic reaction was initiated by addition of potassium succinate (final concentration: 10 mM). The enzymatic activity was calculated based on the measurement of change in the absorbance at 278 nm of UQ2 (e=1.5×10^4 M^−1 cm^−1), and IC50 was determined from the plot of the inhibition percentage against the inhibitor concentration.

The test system of assay [2] is Haemonchus contortus L1-stage larvae. Nature of the assay: In vivo activity test on Haemonchus nematode (motor ability of L1-stage larvae in 96-well plate). To be noted: 27° C./95% RH, 4 days. As for the experimental part:
In Vivo Activity Test on Haemonchus Nematode In a 96-well plate, twenty L1-stage larvae (Haemonchus contortus) per well were maintained so that they could freely move, and solutions of compounds of the present invention dissolved at predetermined concentrations in DMSO (the final concentration of DMSO was 0.78% (v/v)) were added at 0.5 Ill/well each. The plate was kept under the conditions of 27° C./95% RH for 4 days. The motor ability of the larvae was examined and the concentration required for 50% inhibition of the motor ability (EC50) was determined. Based on the EC50 value, the activity against the Haemonchus nematode was graded according to the criterion shown below. Grading Criterion A: The EC50 value is lower than 0.5 ppm. B: The EC50 value is 0.5 ppm or higher but lower than 5 ppm. C: The EC50 value is 5 ppm or higher.

T1 sequence (O44074 22-282): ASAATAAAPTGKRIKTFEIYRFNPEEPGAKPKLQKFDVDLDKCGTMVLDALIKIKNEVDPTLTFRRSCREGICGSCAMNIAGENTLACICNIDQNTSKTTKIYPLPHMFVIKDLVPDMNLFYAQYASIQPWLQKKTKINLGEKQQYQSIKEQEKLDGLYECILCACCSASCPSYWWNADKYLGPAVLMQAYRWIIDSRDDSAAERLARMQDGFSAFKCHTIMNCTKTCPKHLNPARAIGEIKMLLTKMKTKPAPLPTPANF
T1 sequence (P92506 32-188): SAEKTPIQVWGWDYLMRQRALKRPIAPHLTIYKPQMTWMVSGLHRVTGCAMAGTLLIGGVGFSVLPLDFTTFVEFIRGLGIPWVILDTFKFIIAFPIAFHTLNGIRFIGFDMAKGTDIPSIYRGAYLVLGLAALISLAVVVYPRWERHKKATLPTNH
T1 sequence (P92507 26-156): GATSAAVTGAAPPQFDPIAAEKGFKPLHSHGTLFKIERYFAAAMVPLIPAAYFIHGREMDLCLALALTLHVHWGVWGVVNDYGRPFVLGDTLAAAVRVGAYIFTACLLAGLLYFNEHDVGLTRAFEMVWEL
T1 sequence (Q33862 19-645 partner): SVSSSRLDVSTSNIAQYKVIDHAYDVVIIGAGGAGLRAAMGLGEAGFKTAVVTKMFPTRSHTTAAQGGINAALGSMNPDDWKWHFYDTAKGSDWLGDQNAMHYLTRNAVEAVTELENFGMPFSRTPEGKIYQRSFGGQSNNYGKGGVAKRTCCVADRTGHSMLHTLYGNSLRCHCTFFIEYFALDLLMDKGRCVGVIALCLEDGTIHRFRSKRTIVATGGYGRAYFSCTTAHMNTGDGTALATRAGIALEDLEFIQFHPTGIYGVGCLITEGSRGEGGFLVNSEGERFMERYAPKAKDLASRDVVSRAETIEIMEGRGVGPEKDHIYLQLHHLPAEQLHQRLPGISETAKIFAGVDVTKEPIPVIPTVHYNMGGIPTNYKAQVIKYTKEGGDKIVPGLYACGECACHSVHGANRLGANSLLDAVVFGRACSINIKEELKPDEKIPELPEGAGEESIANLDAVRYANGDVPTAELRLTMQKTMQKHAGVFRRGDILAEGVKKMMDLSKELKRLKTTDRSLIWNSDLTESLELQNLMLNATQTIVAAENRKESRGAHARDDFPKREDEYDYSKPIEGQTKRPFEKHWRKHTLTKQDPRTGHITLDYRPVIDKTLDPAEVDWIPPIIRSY

`C[C@@H](Cn1nc(Cl)cc1C(F)(F)F)NC(=O)c1ccccc1C(F)(F)F` [Compound 1]: the half-maximal inhibitory concentration (IC50) in assay [1] was determined as 5.2 nM. Further, in assay [2], the “Grade (EC50, concentration required for 50% inhibition of the motor ability of larvae)” value is recorded as “A (The EC50 value is lower than 0.5 ppm.)”. For `C[C@@H](Cn1nc(C(F)(F)F)cc1Cl)NC(=O)c1ccccc1C(F)(F)F` [Compound 2], the “Grade (EC50, concentration required for 50% inhibition of the motor ability of larvae)” value in assay [2] is “A (The EC50 value is lower than 0.5 ppm.)”. `C[C@@H](Cn1nc(Cl)c(Br)c1Cl)NC(=O)c1ccccc1C(F)(F)F` [Compound 3]: half-maximal inhibition in assay [1] (IC50) required 1.4 nM. The “Grade (EC50, concentration required for 50% inhibition of the motor ability of larvae)” value in assay [2] was “A (The EC50 value is lower than 0.5 ppm.)”. `C[C@@H](Cn1nc(C(F)(F)F)c(Cl)c1Cl)NC(=O)c1ccccc1C(F)(F)F` [Compound 4] had an IC50 in assay [1] of 1.9 nM. For the same compound, in assay [2], the “Grade (EC50, concentration required for 50% inhibition of the motor ability of larvae)” value is “A (The EC50 value is lower than 0.5 ppm.)”. For `C[C@@H](Cn1nc(C(F)(F)F)cc1Br)NC(=O)c1ccccc1C(F)(F)F` [Compound 5], in that order: 5.8 nM and “A (The EC50 value is lower than 0.5 ppm.)”. Compound `Cc1ccccc1C(=O)N[C@@H](C)Cn1nc(Cl)c(Br)c1C(F)(F)F` [Compound 6] came in with an IC50 in assay [1] of 2 nM. In assay [1], `C[C@@H](Cn1nc(Cl)c(Br)c1C(F)(F)F)NC(=O)c1ccccc1C(F)(F)F` [Compound 7] registered an IC50 of 1.7 nM. The “Grade (EC50, concentration required for 50% inhibition of the motor ability of larvae)” value in assay [2] was “A (The EC50 value is lower than 0.5 ppm.)”.

In the case of `Cc1ccccc1C(=O)N[C@@H](C)Cn1nc(Cl)cc1C(F)(F)F` [Compound 10], in assay [2], the “Grade (EC50, concentration required for 50% inhibition of the motor ability of larvae)” value is “B (The EC50 value is 0.5 ppm or higher but lower than 5 ppm.)”.

Compound `C[C@@H](Cn1nc(Br)c(Br)c1Br)NC(=O)c1ccccc1C(F)(F)F` [Compound 14] displayed an IC50 in assay [1] of 1.8 nM. As for `CSc1cc(C(F)(F)F)n(C[C@H](C)NC(=O)c2ccccc2C(F)(F)F)n1` [Compound 18], the IC50 in assay [1] came to 3.1 nM. In assay [1], `C[C@@H](COc1ncc(C(F)(F)F)cc1Cl)NC(=O)c1ccccc1C(F)(F)F` [Compound 23] yielded a 50% inhibitory concentration (IC50) of 1.8 nM. Besides, the “Grade (EC50, concentration required for 50% inhibition of the motor ability of larvae)” value in assay [2] is “A (The EC50 value is lower than 0.5 ppm.)”. `O=C(NCCNc1ncc(C(F)(F)F)cc1Cl)c1ccccc1C(F)(F)F` [Compound 24] registered an IC50 in assay [1] of 11 nM. Moreover, the “Grade (EC50, concentration required for 50% inhibition of the motor ability of larvae)” value in assay [2] was “A (The EC50 value is lower than 0.5 ppm.)”. For `O=C(NCCc1ccc(Oc2ncc(C(F)(F)F)cc2Cl)cc1Cl)c1ccccc1C(F)(F)F` [Compound 26], in that order: 1.4 nM and “A (The EC50 value is lower than 0.5 ppm.)”. For the compound `C[S+]([O-])c1ccc(CCNC(=O)c2ccccc2C(F)(F)F)c(Cl)c1` (centres unmarked) [Compound 27], the half-inhibitory concentration (IC50) in assay [1] came out at 260 nM. Further, in assay [2], the “Grade (EC50, concentration required for 50% inhibition of the motor ability of larvae)” value is recorded as “B (The EC50 value is 0.5 ppm or higher but lower than 5 ppm.)”. `CSc1ccccc1C(=O)NCCc1ccc(Cl)cc1Cl` [Compound 28]: in assay [1], inhibition was half-maximal at 1.2 nM (IC50). The “Grade (EC50, concentration required for 50% inhibition of the motor ability of larvae)” value in assay [2] is “A (The EC50 value is lower than 0.5 ppm.)”. Compound `O=C(NCCc1ccc(Cl)cc1Cl)c1ccccc1SC(F)F` [Compound 31] returned an IC50 in assay [1] of 8.2 nM. `O=C(NCCc1ccc(Cl)cc1Cl)c1ccccc1OC(F)(F)F` [Compound 32]: the IC50 in assay [1] was determined as 48 nM. For the same compound, the “Grade (EC50, concentration required for 50% inhibition of the motor ability of larvae)” value in assay [2] is given as “A (The EC50 value is lower than 0.5 ppm.)”. With `O=C(NCCc1ncc(C(F)(F)F)cc1Cl)c1ccccc1Cl` [Compound 34], in assay [1], half-maximal inhibition (IC50) was put at 2.1 nM. In the case of `O=C(NCCc1ncc(C(F)(F)F)cc1Cl)c1ccccc1Br` [Compound 35], the IC50 in assay [1] was determined as 2.3 nM. In assay [1], `O=C(NCCc1ncc(C(F)(F)F)cc1Cl)c1ccccc1I` [Compound 36] registered a half-inhibitory concentration (IC50) of 1.2 nM. Moreover, the “Grade (EC50, concentration required for 50% inhibition of the motor ability of larvae)” value in assay [2] is reported as “A (The EC50 value is lower than 0.5 ppm.)”. Compound `Cc1ccccc1C(=O)NCCc1ncc(C(F)(F)F)cc1Cl` [Compound 37] yielded an IC50 in assay [1] of 2.6 nM. On the same count and under the same terms, then `O=C(NCCc1ncc(C(F)(F)F)cc1Cl)c1c(F)cccc1F` [Compound 39], with 5.3 nM. In the case of `O=C(NCCc1ncc(C(F)(F)F)cc1Cl)c1c(Cl)cccc1Cl` [Compound 40], 39 nM corresponded to half-maximal inhibition in assay [1] (IC50).
